Data reported in US7919117B2, “Transdermal delivery of (R)-3,3-diphenylpropylamin-monoestern” (UCB Pharma GmbH, priority 2003, dated 2011).

Tests used:
[1] = Stability at processing temperatures in the hot melt procedure; type: physicochemical; conditions: processing temperatures up to 200° C.
Text: In a hot melt procedure the polymers and any auxiliary agents are thermally melted and mixed without the use of any solvents and the meltings spread out on foil. The active ingredient is normally introduced directly into the liquid melt. […] The dynamic viscosity may be determined in the process as described in U.S. Pat. No. 5,328,696.
An alternative procedure that dispenses with the use of organic solvents is the hot melt procedure. In this procedure the polymer or the contact adhesive are melted at temperatures between 70 and 200° C., preferably between 90 and 160° C. and especially preferably between 100 and 150° C. and the active ingredient introduced into the homogenized matrix melt. After a brief homogenization the adhesive matrix that contains the active ingredient is cooled again so that the active ingredient is exposed to a thermal load in general for less than 5 minutes, if desired even for 4, 3, 2 or even for less than 1 minute. Following this the active ingredient is present in the solidified polymer melt. During the process the active ingredient is broadly shielded from critical environmental influences (light, oxygen).

[2] = Stabilization of fesoterodine in various matrices during storage (drop in concentration); type: physicochemical; conditions: storage for 6 months at 5° C.
Description: While, for example, the free base of fesoterodine is decomposed as an oil after storage for 6 months at 5° C. to around 3-4% a drop in concentration cannot be established or can only be established essentially to a lesser extent when fesoterodine is incorporated in matrices, which contain polar components.

[3] = Flow of active ingredient in the human skin model according to Tanojo (in-vitro flux); type: in vitro ADME; conditions: see Table 1
Text: 3.2. Determination of the Flow of Active Ingredient in the Human Skin Model (a) experimental Design The determination of the fesoterodine flux through human skin was essentially performed as described in H. Tanojo et al, J. Control Rel. 45 (1997) 41-47, where instead of the silicone membrane a dialysis membrane was used [[…] Dialysemembran, type 10. 14, obtained from the company Dianorm, Munich, Germany, manufactured from neutral cellulose, exclusion size 5000 Da, thickness (dry): 25 μm; pretreatment in accordance with manufacturer information]. Human skin in a thickness of approximately 250 μm was obtained from the abdomen. A TTS with a surface of 2.545 cm^2 was applied on human skin of equal surface size, where the skin on the acceptor site lays on a […] membrane (FIG. 5). PBS (0.066 molar) was used as the acceptor phase at pH 6.2 and a temperature of 32±0.5° C. The experiments were performed over 72 hours with a 5 ml/hour flux, whereby samples were taken every 3 hours. At the times that the samples are taken, the releasing medium is replaced with fresh medium thermo stated at 32±0.5° C. and the amount of the released fesoterodine measured per HPLC. […]

[4] = Flow of active ingredient in the mouse skin model (in-vitro flux, horizontal diffusion cell); type: in vitro ADME; conditions: salt introduced into the polymer layer, also with oleic acid etc. (Table 1)
Description: 3.1. Determination of the Flow of Active Ingredient in the Mouse Skin Model Belly and back skin in a thickness of approximately 120 to 150 μm was used in a horizontal diffusion cell for the flux measurements through mouse skin. Medium: phosphate buffer solution (0.066 molar) pH 6.2, 32° C. Release of the active ingredient was determined by HPLC.

CC(C)C(=O)Oc1ccc(CO)cc1[C@H](CCN(C(C)C)C(C)C)c1ccccc1 [fesoterodine, (R)-2-[3-(1,1-diisopropylamino)-1-phenylpropyl]-4-(hydroxymethyl)phenyl isobutyrate]
stability at hot melt processing temperatures (in words) [1]: surprisingly stable
Decomposition of the free base stored as an oil [2]: 3-4%

CC(C)N(CCC(c1ccccc1)c1cc(CO)ccc1O)C(C)C (stereo not shown) [2-[3-(1,1-diisopropylamino)-1-phenylpropyl]-4-(hydroxymethyl)phenol]
rate of penetration through the human skin (in words) [3]: very low rate of penetration

CC(C)C(=O)Oc1ccc(CO)cc1[C@H](CCN(C(C)C)C(C)C)c1ccccc1.O=C(O)/C=C/C(=O)O [fumarate salt from fesoterodine, (R)-2-[3-(1,1-diisopropylamino)-1-phenylpropyl]-4-(hydroxymethyl)phenyl isobutyrate hydrogen fumarate]
flux rates (in words) [4]: flux rates not sufficient for transdermal treatment
